According to patent publication US7195918B2 (priority 2003, dated 2007):

Tests used:
[1] = tested on: A. succinogenes 130Z; experiment: Antibiotic minimum inhibitory concentrations: growth of A. succinogenes 130Z in liquid medium A with antibiotics; format: cell-based, Actinobacillus succinogenes; settings: 37° C.; for OD660 after 7 days culture: 5 μg/ml antibiotic; for antibiotic concentration in whose presence no growth was detected / antibiotic concentration in whose presence very slow growth was observed / antibiotic concentration in whose presence A. succinogenes 130Z grew perfectly well: 7 days, OD660
Protocol: Antibiotic minimum inhibitory concentrations. To determine the sensitivity of A. succinogenes 130Z to antibiotics, the growth of A. succinogenes 130Z was tested in medium A (liquid medium) containing a series of antibiotics commonly used in bacteriology. One ml of 130Z preculture was inoculated into 9 ml of medium A containing each antibiotic and incubated at 37° C. for 7 days. Cell growth was followed by measuring OD660.
Resistance of A. succinogenes to antibiotics. A. succinogenes 130Z grew perfectly well in the presence of 50 μg/ml kanamycin or 30 μg/ml streptomycin. […] No growth was detected in the presence of 10 μg/ml ampicillin, 1 μg/ml chloramphenicol, 5 μg/ml tetracycline, or 10 μg/ml erythromycin. A. succinogenes is sensitive to low concentrations of ampicillin, chloramphenicol, erythromycin, and tetracycline, so the corresponding resistance genes (i.e., Amp^R, Cm^R, Tet^R, and Ery^R) could be used as selection markers on plasmids used to transform A. succinogenes. We discovered that the Tn3 Amp^R gene carried by pGZRS-19 is naturally expressed in A. succinogenes.

[2] = tested on: A. succinogenes 130Z cells harboring pLGZ921 and pLGZ922; experiment: Growth of plasmid-harboring A. succinogenes 130Z on TS-agar plates with tetracycline or chloramphenicol; format: cell-based, Actinobacillus succinogenes
Excerpt: Expression of Tet^R and Cm^R in A. succinogenes. We need several markers to conveniently engineer A. succinogenes. One can be used to label a gene deletion, while another one can be used to select for the maintenance of a recombinant gene on a plasmid replicon. To determine whether, once expressed, Cm^R and Tet^R could be used as selective markers in A. succinogenes, the Tn9 Cm^R and Tn10 Tet^R genes were cloned into pLGZ920 under control of the A. succinogenes pckA promoter, yielding plasmids pLGZ921 and pLGZ922, respectively. After electroporation, A. succinogenes 130Z cells harboring pLGZ921 and pLGZ922 were spread on TS-agar (30 g/l TS, 10 g/l glucose) plates containing variable amounts of tetracycline and chloramphenicol (FIG. 9). Strains […] plated on chloramphenicol plates and […] plated on tetracycline plates were used as the negative controls. […] In contrast, strain […] grew on plates containing up to 5.0 μg/ml tetracycline. Chloramphenicol-sensitive 130Z(pLGZ921) strain grew on plates containing up to 0.4 μg/ml […], but not on plates containing higher chloramphenicol concentrations. Strain […] grew on plates containing up to 5.0 μg/ml chloramphenicol.

CC1(C)S[C@@H]2[C@H](NC(=O)[C@H](N)c3ccccc3)C(=O)N2[C@H]1C(=O)O [ampicillin]
OD660 after 7 days culture [1]: approximately 0.05 | antibiotic concentration in whose presence no growth was detected [1]: 10 µg/mL | antibiotic concentration in whose presence very slow growth was observed [1]: 5 µg/mL

NC[C@H]1O[C@H](O[C@H]2[C@H](O)[C@@H](O[C@H]3O[C@H](CO)[C@@H](O)[C@H](N)[C@H]3O)[C@H](N)C[C@@H]2N)[C@H](O)[C@@H](O)[C@@H]1O [kanamycin]
antibiotic concentration in whose presence A. succinogenes 130Z grew perfectly well [1]: 50 µg/mL

CC[C@H]1OC(=O)[C@H](C)[C@@H](O[C@H]2C[C@@](C)(OC)[C@@H](O)[C@H](C)O2)[C@H](C)[C@@H](O[C@@H]2O[C@H](C)C[C@H](N(C)C)[C@H]2O)[C@](C)(O)C[C@@H](C)C(=O)[C@H](C)[C@@H](O)[C@]1(C)O [erythromycin]
OD660 after 7 days culture [1]: approximately 0.05 | antibiotic concentration in whose presence no growth was detected [1]: 10 µg/mL | antibiotic concentration in whose presence very slow growth was observed [1]: 5 µg/mL

O=C(N[C@H](CO)[C@H](O)c1ccc([N+](=O)[O-])cc1)C(Cl)Cl [chloramphenicol]
antibiotic concentration in whose presence no growth was detected [1]: 1 µg/mL

[H]/N=C(/N)N[C@H]1[C@H](O)[C@@H](O)[C@H](O[C@@H]2O[C@@H](C)[C@](O)(C=O)[C@H]2O[C@@H]2O[C@@H](CO)[C@H](O)[C@@H](O)[C@@H]2NC)[C@@H](N/C(N)=N\[H])[C@@H]1O [streptomycin]
antibiotic concentration in whose presence A. succinogenes 130Z grew perfectly well [1]: 30 µg/mL

CN(C)[C@@H]1C(O)=C(C(N)=O)C(=O)[C@@]2(O)C(O)=C3C(=O)c4c(O)cccc4[C@@](C)(O)[C@H]3C[C@@H]12 [tetracycline]
antibiotic concentration in whose presence no growth was detected [1]: 5 µg/mL | antibiotic concentration up to which strain 130Z(pLGZ922) grew on plates [2]: up to 1.0 μg/ml
